The values that follow are results of earlier work, collected in patent US20260272891A1, “TREATMENT OF AUTOIMMUNE DISEASES AND CANCER WITH PROTEASE INHIBITORS” (Lundquist Institute for Biomedical Innovation at …, priority 2023, published 2026).

This data set relates to all variants of concern, including Omicron and its variants. As to conditions: cited from earlier work.

For the molecule `CC(C)(C)[C@H](NC(=O)C(F)(F)F)C(=O)N1C[C@H]2[C@@H]([C@H]1C(=O)N[C@H](C#N)C[C@@H]1CCNC1=O)C2(C)C` [NMV, nirmatrelvir], the antiviral activity result is given as “antiviral activity against all variants of concern”.
